Values of other authors as cited in patent publication US20250205255A1, “PHOSPHOLIPID COMPOSITIONS FOR TREATING INFECTIONS AND INFLAMMATION” (Celestial Therapeutics, Inc., priority 2022, published 2025).

How the values were obtained:
[1] = test system: Toll-like receptor 4 (TLR4) interacting proteins CD14 and MD-2; details: through direct interactions with CD14 and MD-2
[2] = test system: Respiratory Syncytial Virus (RSV); details: bronchial epithelial cells

inflammatory responses induced by lipopolysaccharide [1]: markedly attenuate
SMILES: CCCCCCCC/C=C\CCCCCCCC(=O)O[C@H](COC(=O)CCCCCCCCCCCCCCC)COP(=O)(O)OCC(O)CO (mixture of isomers) [POPG, 1-Palmitoy-2-loleoyl-sn-glycerol-3-phospho-(1′-rac-glycerol)]
cytopathic effects induced by RSV [2]: significantly inhibited | interleukin-6 production ([2]; induced by RSV): significantly inhibited | interleukin-8 production ([2]; induced by RSV): significantly inhibited
